Measurements from patent US20020173538A1, “Method for sensitizing cancer cells to cancer therapies with a mevalonate-reducing compound” (priority 2000, published 2002).
Read-outs that look alike come from different tables or passages of the source.

Key:
Format in all cases: cell-based, human
[1] = tested on: cholesterol biosynthesis in Hep G2 cells; test: Cholesterol biosynthesis, incorporation of [2, ^3H]acetate into [^3H]cholesterol, Hep G2; conditions: for inhibition at 10 µM / inhibition at 1 µM / inhibition at 5 µM / inhibition at 50 µM: Homo sapiens, read-out: percentage of inhibition of cholesterol biosynthesis
[2] = tested on: cholesterol biosynthesis in Hep 3B cells; test: Cholesterol biosynthesis, incorporation of [2, ^3H]acetate into [^3H]cholesterol, Hep 3B; conditions: for inhibition at 10 µM / inhibition at 1 µM / inhibition at 5 µM / inhibition at 50 µM: Homo sapiens, Hep3B, read-out: percentage of inhibition of cholesterol biosynthesis
Hep 3B cells = test: Sub-G1 population and DNA fragmentation (apoptosis), Hep 3B; conditions: compared with Hep G2 cells treated in the same condition (FIG. 12)

SMILES: CC[C@H](C)C(=O)O[C@H]1C[C@@H](C)C=C2C=C[C@H](C)[C@H](CC[C@@H]3C[C@@H](O)CC(=O)O3)[C@H]21 [Lovastatin, lovastatin]
- inhibition at 10 µM ([1]; HepG2, 2 h): 91.8%
- inhibition at 10 µM ([1]; HepG2, 6 h): 94%
- inhibition at 10 µM ([1]; HepG2, 12 h): 93.3%
- inhibition at 1 µM ([1]; HepG2, 24 h): 50.7%
- inhibition at 5 µM ([1]; HepG2, 24 h): 73.2%
- inhibition at 10 µM ([1]; HepG2, 24 h): 87.2%
- inhibition at 50 µM ([1]; HepG2, 24 h): 95.8%
- inhibition at 1 µM ([1]; HepG2, 48 h): -15.3%
- inhibition at 5 µM ([1]; HepG2, 48 h): 48.5%
- inhibition at 10 µM ([1]; HepG2, 48 h): 69.4%
- inhibition at 50 µM ([1]; HepG2, 48 h): 85.1%
- [^3H]cholesterol ([1]; lovastatin 1 μM, 24 hr): 30.14 10^2 dpm/10^5 cells/hr
- [^3H]cholesterol ([1]; lovastatin 1 μM, 48 hr): 70.43 10^2 dpm/10^5 cells/hr
- [^3H]cholesterol ([1]; lovastatin 5 μM, 24 hr): 16.39 10^2 dpm/10^5 cells/hr
- [^3H]cholesterol ([1]; lovastatin 5 μM, 48 hr): 31.46 10^2 dpm/10^5 cells/hr
- [^3H]cholesterol ([1]; lovastatin 10 μM, 2 hr): 5.00 10^2 dpm/10^5 cells/hr
- [^3H]cholesterol ([1]; lovastatin 10 μM, 6 hr): 3.67 10^2 dpm/10^5 cells/hr
- [^3H]cholesterol ([1]; lovastatin 10 μM, 12 hr): 4.07 10^2 dpm/10^5 cells/hr
- [^3H]cholesterol ([1]; lovastatin 10 μM, 24 hr): 7.83 10^2 dpm/10^5 cells/hr
- [^3H]cholesterol ([1]; lovastatin 10 μM, 48 hr): 18.71 10^2 dpm/10^5 cells/hr
- [^3H]cholesterol ([1]; lovastatin 50 μM, 24 hr): 2.54 10^2 dpm/10^5 cells/hr
- [^3H]cholesterol ([1]; lovastatin 50 μM, 48 hr): 9.13 10^2 dpm/10^5 cells/hr
- inhibition at 10 µM ([2]; 2 h): 94.1%
- inhibition at 10 µM ([2]; 6 h): 92.4%
- inhibition at 10 µM ([2]; 12 h): 89.5%
- inhibition at 1 µM ([2]; 24 h): 50%
- inhibition at 5 µM ([2]; 24 h): 85.4%
- inhibition at 10 µM ([2]; 24 h): 91.4%
- inhibition at 50 µM ([2]; 24 h): 95.1%
- inhibition at 1 µM ([2]; 48 h): 68.2%
- inhibition at 5 µM ([2]; 48 h): 86.2%
- inhibition at 10 µM ([2]; 48 h): 94%
- inhibition at 50 µM ([2]; 48 h): 95.5%
- suppression of cholesterol synthesis ([2]; after prolonged treatment with lovastatin): > 90%
- [^3H]cholesterol ([2]; lovastatin 1 μM, 24 hr): 29.84 10^2 dpm/10^5 cells/hr
- [^3H]cholesterol ([2]; lovastatin 1 μM, 48 hr): 18.95 10^2 dpm/10^5 cells/hr
- [^3H]cholesterol ([2]; lovastatin 5 μM, 24 hr): 8.69 10^2 dpm/10^5 cells/hr
- [^3H]cholesterol ([2]; lovastatin 5 μM, 48 hr): 8.25 10^2 dpm/10^5 cells/hr
- [^3H]cholesterol ([2]; lovastatin 10 μM, 2 hr): 3.54 10^2 dpm/10^5 cells/hr
- [^3H]cholesterol ([2]; lovastatin 10 μM, 6 hr): 4.52 10^2 dpm/10^5 cells/hr
- [^3H]cholesterol ([2]; lovastatin 10 μM, 12 hr): 6.25 10^2 dpm/10^5 cells/hr
- [^3H]cholesterol ([2]; lovastatin 10 μM, 24 hr): 5.13 10^2 dpm/10^5 cells/hr
- [^3H]cholesterol ([2]; lovastatin 10 μM, 48 hr): 3.59 10^2 dpm/10^5 cells/hr
- [^3H]cholesterol ([2]; lovastatin 50 μM, 24 hr): 2.92 10^2 dpm/10^5 cells/hr
- [^3H]cholesterol ([2]; lovastatin 50 μM, 48 hr): 2.71 10^2 dpm/10^5 cells/hr
- Sub-G1 population and DNA fragmentation (markers of cell apoptosis) (Hep 3B cells): observed in a higher percentage and lower dose of lovastatin treatment than those in Hep G2 cells
